Test results taken from patent US20250154142A1, “THIADIAZOLE-SUBSTITUTED COMPOUND, PHARMACEUTICAL COMPOSITIONS THEREOF, AND APPLICATIONS THEREOF” (Shanghai Yingli Pharmaceutical Co., Ltd., priority 2023, published 2025).

Experiments:
[1] = Pharmacokinetic studies in mice after intravenous and oral administration; assay type: in vivo; conditions: mouse, male CD-1 mice, plasma
Method: After intravenous and oral administration to male C57BL/6J mice or male CD-1 mice, plasma samples were collected through the orbital venous plexus at 8-9 time points (e.g., 5 min, 15 min, 30 min, 1 h, 2 h, 4 h, 7 h, 24 h or 5 min, 15 min, 30 min, 1 h, 2 h, 4 h, 6 h, 8 h, 24 h). The collected blood samples were transferred to microcentrifuge tubes containing EDTA-K2 anticoagulant, and the […] were centrifuged for 5 min at 4° C. and 4000 g. The supernatants were stored in a refrigerator at −75° C.±15° C. The concentrations of the compounds in the plasma at the different time points were detected by LC-MS/MS and the relevant pharmacokinetic parameters were calculated using the WinNonlin software

PARG (389-976) = target: T1, PARG (389-976) (Homo sapiens, UniProt Q86W56); test: PARG enzyme inhibition assay (TR-FRET); assay type: biochemical; conditions: Bio PARylated His-TEV-PARP1 substrate
T1 construct: 5 μL of PARG (389-976) (manufactured by Chempartner Chemical Co., Ltd.); purchased Chempartner Chemical Co., Ltd
T1 sequence (Q86W56 389-976): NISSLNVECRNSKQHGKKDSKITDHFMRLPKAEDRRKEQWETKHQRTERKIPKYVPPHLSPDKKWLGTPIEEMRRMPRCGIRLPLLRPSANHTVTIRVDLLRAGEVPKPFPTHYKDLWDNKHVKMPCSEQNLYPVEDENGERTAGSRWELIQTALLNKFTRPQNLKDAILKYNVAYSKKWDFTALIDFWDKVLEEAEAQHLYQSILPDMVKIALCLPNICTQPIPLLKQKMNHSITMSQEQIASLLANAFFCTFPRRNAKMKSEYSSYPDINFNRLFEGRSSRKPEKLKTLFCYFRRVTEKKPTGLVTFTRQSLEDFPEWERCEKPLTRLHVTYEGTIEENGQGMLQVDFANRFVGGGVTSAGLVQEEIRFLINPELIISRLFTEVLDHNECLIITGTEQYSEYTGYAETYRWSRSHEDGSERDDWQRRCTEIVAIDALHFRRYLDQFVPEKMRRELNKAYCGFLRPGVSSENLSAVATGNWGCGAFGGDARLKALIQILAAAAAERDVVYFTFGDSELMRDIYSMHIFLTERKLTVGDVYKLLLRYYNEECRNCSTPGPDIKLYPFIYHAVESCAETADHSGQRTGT
Method: PARG in vitro assays were conducted in standard 384-well plates in a total volume of 15 μL. 5 μL of PARG (389-976) (manufactured by Chempartner Chemical Co., Ltd.) in buffer (50 mM Tris-HCL 7.5, 30 mM KCl, 1 mM EDTA, 3 mM DTT, tween-20 0.01%, BSA 0.025%) was added at a final concentration of 1.5 pM to the 384-well plates containing the compounds to be tested, which was incubated for 30 min at room temperature. To the above mixture was added 5 μL Bio PARylated His-TEV-PARP1 (2-1014) substrate (manufactured by Chempartner Chemical Co., Ltd.) at a final concentration of 12 nM, after addition, the resulting mixture was incubated for 30 minutes at room temperature. Then to the mixture was added detection reagent (5 μL) which was buffered with 50 mM Tris-HCL 7.5, 30 mM KCl, 1 mM EDTA, 3 mM DTT, tween-20 0.01%, BSA 0.025%, and consisted of 3 μM of compound PDD00017273 and 9 nM Mab anti-6HIS XL665 (Cisbio: 61HISXLA) and 0.9 nM streptavidin affinity terbium cryptate (Cisbio: 610SATLA), all at 3× working concentrations (final concentrations of […], 3 nM and 0.3 nM, respectively). After 120 min incubation in the dark at room temperature, TR-FRET signals were measured at Ex 340 and Em 665 and Em 615. The ratio for each well was calculated as Em 665/Em 615 and the compound inhibition rate was calculated based on the obtained data.

| SMILES | AUC(0-inf) ([1]; intravenous 5 mg/kg) [µg·h/mL] | AUC(0-t) ([1]; intravenous 5 mg/kg) [µg·h/mL] | clearance ([1]; intravenous 5 mg/kg) [L/h/kg] | AUC(0-inf) ([1]; oral administration 10 mg/kg) [µg·h/mL] | AUC(0-t) ([1]; oral administration 10 mg/kg) [µg·h/mL] | Cmax ([1]; oral administration 10 mg/kg) [µg/mL] | IC50 (PARG (389-976); class symbol) [nM] | IC50 (PARG (389-976); numeric value) [nM] |
| --- | --- | --- | --- | --- | --- | --- | --- | --- |
| C[C@H]1CN(c2c(F)c(S(=O)(=O)NC3(C#N)CC3)cc3c2cnn3-c2nnc(C(F)(F)F)s2)C[C@H](C)N1 [Compound 3] | 2.42 | 2.41 | 2.09 | 4.08 | 4.07 | 0.513 |  |  |
| C[C@H]1CN(c2c(F)c(S(=O)(=O)NC3(C)CC3)cc3c2cnn3-c2nnc(C(F)(F)F)s2)C[C@H](C)N1 [Compound 4] | 2.35 | 1.99 | 2.14 | 3.97 | 3.26 | 0.198 | < 2 |  |
| C[C@H]1CN(c2c(F)c(S(=O)(=O)NC3(C)CC3)cc3c2cnn3-c2nnc(C(F)F)s2)C[C@H](C)N1 [Compound 5] | 1.62 | 1.6 | 3.1 | 2 | 1.97 | 0.172 | < 2 |  |

Other lines, results leading:

| AUC(0-inf) ([1]; intravenous 5 mg/kg) [µg·h/mL] | AUC(0-t) ([1]; intravenous 5 mg/kg) [µg·h/mL] | clearance ([1]; intravenous 5 mg/kg) [L/h/kg] | AUC(0-inf) ([1]; oral administration 10 mg/kg) [µg·h/mL] | AUC(0-t) ([1]; oral administration 10 mg/kg) [µg·h/mL] | Cmax ([1]; oral administration 10 mg/kg) [µg/mL] | IC50 (PARG (389-976); class symbol) [nM] | IC50 (PARG (389-976); numeric value) [nM] | SMILES |
| --- | --- | --- | --- | --- | --- | --- | --- | --- |
| 3.7 | 2.54 | 1.35 | 2.98 | 2.61 | 0.175 | < 2 | 0.2 | C[C@H]1CN(c2cc(S(=O)(=O)NC3(C)CC3)cc3c2cnn3-c2nnc(C(F)(F)F)s2)C[C@H](C)N1 [Compound 1] |
| 0.939 | 0.905 | 5.37 | 0.929 | 0.725 | 0.0988 | < 2 | 0.21 | C[C@H]1CN(c2cc(S(=O)(=O)NC3(C)CC3)cc3c2cnn3-c2nnc(C(F)F)s2)C[C@H](C)N1 [Compound 1′, reference compound] |
|  |  |  |  |  |  | < 2 | 0.62 | C[C@H]1CN(c2cc(S(=O)(=O)NC3(C#N)CC3)cc3c2cnn3-c2nnc(C(F)(F)F)s2)C[C@H](C)N1 [Compound 2] |
